Measured values reported in EP3301096A1, “BIS-INDOLE DERIVATIVES FOR USE IN THE TREATMENT OF BACTERIAL INFECTIONS” (Heinrich Heine Universität Düsseldorf, priority 2016, dated 2018).

Assays:
M. tuberculosis H37Rv = assay: MIC determination, resazurin microplate assay; format: cell-based; settings: Mycobacterium tuberculosis, 120 h, five days, range 100-0.78 µM
E. faecium ATCC 35667 = assay: MIC by broth microdilution method (CLSI); settings: Enterococcus faecium, ATCC35667, 24 h
Procedure: (§4) The compounds were tested for their antibacterial activities against the pathogenic nosocomial strains of Staphylococcus aureus, Enterococcus faecalis Enterococcus faecium, Acinetobacter baumannii. The minimal inhibitory concentration (MIC) was determined by the broth microdilution method according to the recommendations of the Clinical and Laboratory Standards Institute (CLSI) (CLSI M7-A9, 2012). For preparation of the inoculum the growth method was used. Bacterial cells were grown aerobically in Muller Hinton (MH) medium at 37°C and 180 rpm. A preculture was grown until log phase (OD600 nm ∼ 0.5) and then seeded at 5 x 10^4 bacteria/well in a total volume of 100 µL in 96 well round bottom microtiter plates and incubated with serially diluted test substances at a concentration range of 100-0.78 µM. The compounds were screened in two-fold serial dilution. Microplates were incubated aerobically at 37°C for 24 h. MICs were determined by identifying the minimum concentration of the compounds that led to complete inhibition of visual growth of the bacteria.

E. faecalis ATCC 29212 = assay: MIC by broth microdilution method (CLSI); settings: Enterococcus faecalis, ATCC29212, 24 h
Procedure: as §4

S. aureus ATCC 25923 = assay: MIC by broth microdilution method (CLSI); settings: Staphylococcus aureus, ATCC25923, 24 h
Procedure: as §4

MRSA ATCC 700699 = assay: MIC by broth microdilution method (CLSI); settings: Staphylococcus aureus, 24 h
Procedure: as §4

[1] = system: VR E. faecium ATCC 700221; assay: MIC by broth microdilution method (CLSI); settings: Enterococcus faecium, ATCC700221, 24 h
Procedure: as §4

E. faecalis ATCC 51299 = assay: MIC by broth microdilution method (CLSI); settings: Enterococcus faecalis, ATCC51299, 24 h
Procedure: as §4

[2] = system: methicillin-sensitive Staphylococcus aureus; assay: MIC quantified via the BacTiter-Glo assay; format: cell-based; settings: methicillin-sensitive strain; 24 h
Procedure: (§1) The MICs of compounds according to formulas (2), (3), (4), (7), (11), (12) and (18) were additionally quantified via the BacTiter-Glo™ assay (Promega, Madison, WI, USA). Briefly, after an incubation time of 24 h, each well was resuspended by pipetting, and 50 µL aliquots were transferred into an opaque-walled multiwell plate. Additionally, control wells containing medium without cells to determine background luminescence were prepared. 50 µL BacTiter-Glo™ reagent were added to each well. Contents were mixed and incubated for five minutes at room temperature. Luminescence was measured using a microplate reader. Growth was calculated relative to the background luminescence (0% growth) and a compound-free DMSO control (100% growth).

[3] = system: methicillin-resistant Staphylococcus aureus; assay: MIC quantified via the BacTiter-Glo assay; format: cell-based; settings: methicillin-resistant strain; 24 h
Procedure: as §1

[4] = system: nosocomial pathogens and Mycobacterium tuberculosis; assay: MIC determination, statements across the tested strains; format: cell-based; settings: for activity against the tested strains: tested concentration range 100-0.78 µM
[5] = system: Methicillin resistant S. aureus (MRSA; ATCC 700699); assay: Resistance development during time-kill kinetics; format: cell-based, Staphylococcus aureus; settings: after 6 and 24 h of incubation, plated on agar with 5x MIC
Procedure: Additionally, the resistance rate of the cultures was determined after 6 and 24 h of incubation. For this, 20 µL of the cultures were plated on 1 mL MH agar containing the five-fold MIC of the compounds (for the compound according to formula (2) and (4): 2 µM, for the compound according to formula (3): 8 µM). After an incubation time of 24 h at 37°C, the colonies were counted. The resistance rate was determined as quotient of the number of resistant colonies on compound containing agar and the total amount of viable bacteria at the corresponding time points.
Two independent cultures C1 and C2 were tested for each attempt. Compounds were tested at 5x MIC resulting in 0.02-0.08% DMSO final concentration. In an independent experiment, medium was replaced and compounds were freshly added after 6 h, denoted "freshly added" in the Figure. 20 µL of different dilution of the cultures after either 6 or 24 h of incubation were plated out on MH agar containing either no antibiotics, which is denoted (*) or the compounds of formulas (2) and (3) at 5x MIC, respectively.

[6] = system: Staphylococcus aureus MRSA strain ATCC 700699; assay: Time-kill curves in vitro (killing kinetics); format: cell-based
[7] = system: human fetal lung fibroblast cell line MRC-5; assay: Cytotoxicity, resazurin assay; format: cell-based; settings: MRC-5 cells, 48 h
Procedure: (§2) The cytotoxicity of the compounds according to formulas (2), (3) and (4) and according to formulas (7), (11), (12) and (18) was determined in vitro using the human monocyte cell line THP-1 (Deutsche Sammlung von Mikroorganismen und Zellkulturen GmbH) and the human fetal lung fibroblast cell line MRC-5 (American Type Culture Collection).
(§3) THP-1 cells were cultured in RPMI 1640 medium containing 10% (v/v) fetal bovine serum (FBS), while MRC-5 cells were incubated in Dulbecco's Modified Eagles Medium (DMEM) containing 10% (v/v) FBS both at 37°C in a humidified atmosphere of 5% CO2. […] Cells treated with DMSO in a final concentration of 1% (v/v) served as DMSO toxicity controls. After an incubation time of 48 h, 10 µL resazurin solution (100 µg/mL) were added per well and incubated for further 3 h at 37°C in a humidified atmosphere of 5% CO2. Fluorescence was quantified using a microplate reader (excitation 540 nm, emission 590 nm). Growth was calculated relative to non-inoculated (i.e. cell-free) (0% growth) and untreated (100% growth) controls in triplicate experiments, respectively. For determination of the therapeutic index of the tested substances, the selectivity index (SI) was determined by the quotient of cytotoxic concentration and MIC. Compounds with SI ≥ 10 were characterized in further experiments.

[8] = system: human monocyte cell line THP-1; assay: Cytotoxicity, resazurin assay; format: cell-based; settings: THP-1 cells, 48 h
Procedure: as §2, §3

| Structure (SMILES) | MIC (M. tuberculosis H37Rv) | MIC (E. faecium ATCC 35667) | MIC (E. faecalis ATCC 29212) | MIC (S. aureus ATCC 25923) | MIC (MRSA ATCC 700699) | MIC [1] | MIC (E. faecalis ATCC 51299) | inhibition of Staphylococcus aureus (BacTiter-Glo) [2] | inhibition of Staphylococcus aureus (BacTiter-Glo) [3] | effect against M. tuberculosis, S. aureus and E.faecium [4] | activity against the tested strains [4] | level of resistance in treated cultures [5] | bacteria amount ([6]; after 6 h at five-fold MIC, inoculum 10^6 CFU/mL) | killing effect ([6]; five-fold MIC) | cytotoxic (inhibitory) concentration [7] | cytotoxic (inhibitory) concentration [8] |
| --- | --- | --- | --- | --- | --- | --- | --- | --- | --- | --- | --- | --- | --- | --- | --- | --- |
| c1ccc2c(-c3cc(-c4c[nH]c5ccccc45)ncn3)c[nH]c2c1 [formula (15), 4,6-di(1H-indole-3-yl)pyrimidine] | > 100 µM | > 100 µM | > 100 µM | > 100 µM | > 100 µM | > 100 µM | > 100 µM |  |  |  |  |  |  |  |  |  |
| c1ccc2c(-c3csc(-c4c[nH]c5ccccc45)n3)c[nH]c2c1 [formula (18), 2,4-di(1H-indole-3-yl)thiazole] | 100 µM | 6.25 µM | > 100 µM | 6.25 µM | 3.12 µM | 6.25 µM | > 100 µM | effectively inhibited | effectively inhibited |  |  |  |  |  |  |  |
| c1ccc2c(-c3ccc(-c4c[nH]c5ccccc45)nn3)c[nH]c2c1 [formula (17), 3,6-Di(1H-indole-3-yl)pyridazine] | > 100 µM | > 100 µM | 100 µM | > 100 µM | > 100 µM | > 100 µM | 100 µM |  |  |  |  |  |  |  |  |  |
| c1ccc2c(-c3cnc(-c4c[nH]c5ccccc45)cn3)c[nH]c2c1 [formula (10), 2,5-bis(1H-indole-3-yl)pyrazine] | > 100 µM | > 100 µM | 12.5 µM | > 100 µM | > 100 µM | > 100 µM | 25 µM |  |  | did not show any effect |  |  |  |  |  |  |
| c1cc(-c2c[nH]c3ccccc23)nc(-c2c[nH]c3ccccc23)c1 [formula (16), 2,6-di(1H-indole-3-yl)pyridine] | > 100 µM | > 100 µM | 100 µM | > 100 µM | > 100 µM | > 100 µM | 100 µM |  |  |  |  |  |  |  |  |  |
| Brc1cc2[nH]cc(-c3cnc(-c4c[nH]c5cc(Br)c(Br)cc45)cn3)c2cc1Br [formula (7), 2,5-bis(5,6-dibromo-1H-indole-3-yl)pyrazine] | > 100 µM | 50 µM | 100 µM | 100 µM | 25 µM | 50 µM | > 100 µM |  |  |  |  |  |  |  |  |  |
| Brc1ccc2c(-c3cnc(-c4c[nH]c5cc(Br)ccc45)cn3)c[nH]c2c1 [formula (6), 2,5-bis(6-bromo-1H-indole-3-yl)pyrazine] | > 100 µM | > 100 µM | > 100 µM | > 100 µM | > 100 µM | > 100 µM | > 100 µM |  |  |  | no activity could be observed |  |  |  |  |  |
| Fc1ccc2[nH]cc(-c3cnc(-c4c[nH]c5ccc(F)cc45)cn3)c2c1 [formula (5), 2,5-bis(5-fluoro-1H-indole-3-yl)pyrazine] | > 100 µM | > 100 µM | > 100 µM | > 100 µM | > 100 µM | > 100 µM | > 100 µM |  |  |  | no activity |  |  |  |  |  |
| Brc1ccc2[nH]cc(-c3cnc(-c4c[nH]c5ccc(Br)cc45)cn3)c2c1 [formula (3), 2,5-bis(5-bromo-1H-indole-3-yl)pyrazine] | > 100 µM | > 100 µM | > 100 µM | 1.56 µM | 1.56 µM | > 100 µM | > 100 µM | effectively inhibited | effectively inhibited |  |  | no significant level of resistance was detectable | 10^2 CFU/mL | strong bactericidal killing effect | 12.5 µM | 12.5 µM |
| COc1ccc2[nH]cc(-c3cnc(-c4c[nH]c5ccc(OC)cc45)nc3)c2c1 [formula (14), 3,3'-(pyrimidine-2,5-diyl)bis(5-methoxy-1H-indole)] | 50 µM | 100 µM | 50 µM | > 100 µM | 50 µM | 50 µM | 100 µM |  |  |  |  |  |  |  |  |  |
| c1cnc2[nH]cc(-c3cnc(-c4c[nH]c5ncccc45)nc3)c2c1 [formula (13), 3,3'-(pyrimidine-2,5-diyl)bis(1H-pyrrolo[2,3-b]pyridine)] | > 100 µM | > 100 µM | 100 µM | > 100 µM | > 100 µM | > 100 µM | > 100 µM |  |  |  |  |  |  |  |  |  |
| COc1ccc2c(-c3cnc(-c4c[nH]c5cc(OC)ccc45)cn3)c[nH]c2c1 [formula (9), 2,5-bis(6-methoxy-1H-indole-3-yl)pyrazine] | > 100 µM | > 100 µM | > 100 µM | > 100 µM | > 100 µM | > 100 µM | > 100 µM |  |  | did not show any effect |  |  |  |  |  |  |
| c1ccc2c(-c3cnc(-c4c[nH]c5ccccc45)nc3)c[nH]c2c1 [formula (12), 3,3'-(pyrimidine-2,5-diyl)bis(1H-indole)] | 50 µM | 100 µM | 50 µM | 100 µM | 12.5 µM | 100 µM | 100 µM |  |  |  |  |  |  |  |  |  |
| COc1ccc2[nH]cc(-c3cnc(-c4c[nH]c5ccc(OC)cc45)cn3)c2c1 [formula (8), 2,5-bis(5-methoxy-1H-indole-3-yl)pyrazine] | > 100 µM | > 100 µM | > 100 µM | > 100 µM | > 100 µM | > 100 µM | > 100 µM |  |  | did not show any effect |  |  |  |  |  |  |
| Fc1ccc2[nH]cc(-c3cnc(-c4c[nH]c5ccc(F)cc45)nc3)c2c1 [formula (11), 3,3'-(pyrimidine-2,5-diyl)bis(5-fluoro-1H-indole)] | > 100 µM | 50 µM | 100 µM | 100 µM | 12.5 µM | 50 µM | 100 µM |  |  |  |  |  |  |  |  |  |
